Key:
[1] = test system: platelet poor plasma (PPP) separated from human blood; assay: APTT and heparin-like activity, hibiscus anti-blood coagulant compositions (Test Examples C-1 to C-3); assay type: biochemical
Procedure: Ten microliters of heparin adjusted to a concentration of 0.05, 0.1, 0.2 or 0.4 U/mL and 40 μL of platelet poor plasma (PPP) separated from human blood were placed in a reaction cuvette, and the components were reacted at 37° C. for 1 minute. Thereafter, 50 μL of an APTT reagent (manufactured by INTERNATIONAL REAGENTS CORPORATION) was added thereto to further react at 37° C. for 2 minutes, and 50 μL of 25 mM calcium chloride was then added. The time period by which plasma was coagulated (APTT; second) was measured with a coagulometer (manufactured by SYSMEX CORPORATION). In order to evaluate the anti-blood coagulant effect of the anti-blood coagulant composition of the present invention, a calculation formula for the heparin-like activity value (U/mg) was obtained from the relationship between the heparin concentration and the APTT of heparin.
Thereafter, 50 μL of an APTT reagent (manufactured by INTERNATIONAL REAGENTS CORPORATION) was added to further react the components at 37° C. for 2 minutes.

[2] = test system: platelet poor plasma (PPP) separated from human blood; assay: APTT and heparin-like activity, enzymatically treated Hizikia fusiforme compositions (Test Examples F″-1, F″-2); assay type: biochemical
Procedure: The thrombus preventing effect of the composition A for preventing thrombus of the present invention was evaluated by measuring the APTT with a coagulometer (manufactured by SYSMEX CORPORATION) utilizing platelet poor plasma (PPP) separated from human blood.
(§1) Ten microliters of a sample of which amount was adjusted so as to have a concentration of 0.075, 0.15, 0.3 or 0.5 mg/mL calculated as a solid content, and 40 μl of PPP were placed in a reaction cuvette to react the components at 37° C. for 1 minute. Thereafter, 50 μL of an APTT reagent (manufactured by INTERNATIONAL REAGENTS CORPORATION) was added thereto to further react the components at 37° C. for 2 minutes, and 50 μL of 25 mM calcium chloride was then added thereto. The time period (second) by which plasma was coagulated was measured, and defined as APTT.
Here, as the control, the APTT was measured in the same manner using heparin adjusted to a concentration of 0.05, 0.1, 0.2 or 0.3 U/mL as a sample. The following calculation formula for a heparin-like activity value (U/mg) was obtained from the relationship between the concentration of heparin and the APTT of heparin. The resultant value was plugged into the calculation formula to give a heparin-like activity value relative to heparin (1 U/mL) at each sample concentration.
The APTTs were measured for the composition A for preventing thrombus obtained in Example F″-1, the compositions B and C for preventing thrombus obtained in Example F″-2, and the comparative composition obtained in Comparative Example F″-1 in the same manner as in Test Example F″-1 at a concentration of 0.2 mg/mL calculated as a solid content. Thereafter, the resultant value was plugged into the calculation formula for a heparin-like activity value (U/mg) in Test Example F″-1, to give a heparin-like activity value of each composition for preventing thrombus.

[3] = test system: platelet poor plasma (PPP) separated from human blood; assay: APTT and heparin-like activity, Hizikia fusiforme thrombus preventing compositions (Test Examples F′-1, F′-2); assay type: biochemical
Procedure: The thrombus preventing effect of the thrombus preventing composition A of the present invention was evaluated by measuring the APTT with the coagulometer utilizing platelet poor plasma (PPP) separated from human blood.
as §1, with “concentration of the thrombus preventing composition A of the present invention of 0.075, 0.15,” for “concentration of 0.075, 0.15,”, “and 40 μL of PPP” for “and 40 μl of PPP”, “was added to further” for “was added thereto to further”, “time period (seconds) by which” for “time period (second) by which”
Here, as the control, APTT was measured using heparin adjusted to have a concentration of 0.05, 0.1, 0.2 and 0.3 U/mL as a sample in the same manner. The following calculation formula for a heparin-like activity value (U/mg) was obtained from this relationship between the concentration of this heparin and APTT of heparin, and the resultant value was plugged into this calculation formula to give a heparin-like activity value relative to heparin (1 U/mL) at each sample concentration.
The APTTs were measured for the thrombus preventing composition A obtained in Example F′-1, the thrombus preventing compositions B, D and E obtained in Example F′-2, and the thrombus preventing composition F obtained in Example F′-3 at a concentration of 0.2 mg/mL calculated as a solid content in the same manner as in Test Example F′-1. Thereafter, the resultant value was plugged into the calculation formula for the heparin-like activity value (U/mg) in Test Example F′-1 to give a heparin-like activity value of each thrombus preventing composition. In addition, a sample was prepared in the same manner for the supernatant fraction with 80% ethanol in Example F′-2, and its heparin-like activity value was obtained.

[4] = test system: platelet rich plasma of a normal individual; assay: Prothrombin time (PT), anti-extrinsic blood coagulant activity, Hizikia fusiforme (Test Examples F-1, F-2); assay type: biochemical, human
Procedure: The anti-extrinsic blood coagulant activity of the extrinsic blood coagulation preventing composition of the present invention was obtained as follows: Ten microliters of a sample of a heparin test solution adjusted by […] rich plasma of a normal individual using a coagulometer (manufactured by SYSMEX CORPORATION) to react the components at 37° C. for 1 minute. Thereafter, 100 μL of a PT reagent (manufactured by INTERNATIONAL REAGENTS CORPORATION) was added thereto, and the time period by which plasma was coagulated was measured, i.e. PT was measured. From the relationship between the concentration of this heparin test solution and the PT, the following numerical formula for a heparin-like activity value (U/mg) was obtained.
Thereafter, a sample was prepared by diluting the extrinsic blood coagulation preventing composition A of the present invention with distilled water so as to have a concentration of 0.078, 0.156, 0.313, 0.625 or 1.25 mg/mL calculated as a solid content. The PT was measured in the same manner and the resultant value was plugged into the above numerical formula to give a heparin-like activity value relative to heparin (1 U/mL) at each sample concentration.
In addition, a PT ratio was calculated at each sample concentration according to the following equation using a heparin test solution concentration of 0 mg/mL as the control. PT Ratio=PT When Adding Sample/PT of Control(Heparin Test Solution Concentration:0 mg/mL)
The PTs were determined for the extrinsic blood coagulation preventing composition A obtained in Example F-1, the extrinsic blood coagulation preventing compositions B, C, D and E obtained in Example F-2, and the extrinsic blood coagulation preventing composition F obtained in Example F-3 at a concentration of 0.2 mg/mL calculated as a solid content. Thereafter, the resultant value was plugged into the calculation formula for a heparin-like activity value (U/mg) in Test Example F-1, and the heparin-like activity value and the PT ratio of each extrinsic blood coagulation preventing composition were obtained. In addition, a sample was prepared using the supernatant fraction with 80% ethyl alcohol in Example F-2 in the same manner, and the heparin-like activity value and the PT ratio were obtained.

[5] = test system: platelet poor plasma (PPP) separated from human blood; assay: APTT anti-coagulant activity of carrageenan antithrombotic agents (Test Example G-1); assay type: biochemical; details: for Anti-Coagulant Activity: relative to water control
Procedure: The anti-coagulant activity of the antithrombotic agent of the present invention was assayed with a coagulometer (manufactured by SYSMEX CORPORATION) utilizing platelet poor plasma (PPP) separated from human blood.
Ten microliters of a sample, 25 microliters of an APTT reagent (manufactured by INTERNATIONAL REAGENTS CORPORATION), and 25 microliters of 10% cephalin were placed into a reaction cuvette to react the components at 37° C. for 3 minutes, and 50 microliters of PPP was placed in the reaction cuvette to react the components for 2 minutes. Finally, 50 microliters of 25 millimolar calcium chloride was added to coagulate the mixture obtained. The time period (second) by which plasma was coagulated was measured, and defined as APTT.
Here, water was used as the control, and the APTT was measured in the same manner. The anti-coagulant activity (%) was calculated from the measured APTT of the sample, relative to that of the control according to the following numerical formula. Anti-Coagulant Activity(%)=((APTT of Sample−APTT of Control)/APTT of Control)×100 […]

[6] = heparin concentration 0.05 U/mL

Substance	APTT ([5]; concentration 0.5 mg/mL)	Anti-Coagulant Activity ([5]; concentration 0.5 mg/mL)	APTT ([5]; concentration 2.5 mg/mL)	Anti-Coagulant Activity ([5]; concentration 2.5 mg/mL)	APTT ([5]; concentration 5.0 mg/mL)	Anti-Coagulant Activity ([5]; concentration 5.0 mg/mL)	other results
heparin	–	–	–	–	–	–	APTT [1, 6]: 39.6 s; APTT ([1]; heparin concentration 0.1 U/mL): 50.9 s; APTT ([1]; heparin concentration 0.2 U/mL): 86.4 s; APTT ([1]; heparin concentration 0.4 U/mL): 180.2 s; APTT [2, 6]: 39.6 s; APTT ([2]; heparin concentration 0.1 U/mL): 50.9 s; APTT ([2]; heparin concentration 0.2 U/mL): 86.4 s; APTT ([2]; heparin concentration 0.3 U/mL): 180.2 s; APTT [3, 6]: 39.6 s; APTT ([3]; heparin concentration 0.1 U/mL): 50.9 s; APTT ([3]; heparin concentration 0.2 U/mL): 86.4 s; APTT ([3]; heparin concentration 0.3 U/mL): 180.2 s; PT ([4]; heparin concentration 0.0625 U/mL): 11.6 s; PT ([4]; heparin concentration 0.125 U/mL): 11.8 s; PT ([4]; heparin concentration 0.25 U/mL): 12.3 s; PT ([4]; heparin concentration 0.5 U/mL): 13.2 s; PT ([4]; heparin concentration 1 U/mL): 18.1 s
ι-carrageenan	162 s	260%	600 or more sec	1200 or more %	600 or more sec	1200 or more %	–
κ-carrageenan	99 s	120%	491 s	991%	600 or more sec	1200 or more %	–
λ-carrageenan	398 s	784%	600 or more sec	1200 or more %	600 or more sec	1200 or more %	–

Reference: patent US7914830B2, “Composition for inhibiting thrombosis” (Taiyo Kagaku Co., Ltd, priority 2003, dated 2011)
